EC50 data for one compound are collected here from patent US20160030416A1, “METHODS OF TREATING B2-BRADYKININ RECEPTOR MEDIATED ANGIOEDEMA” (SHIRE HUMAN GENETIC THERAPIES, INC., priority 2013, published 2016).

For this assay, the system named is BK-induced human umbilical vein contractions. Nature of the assay: cells. The procedure: The inhibition effect of CFMQ on bradykinin induced […] was examined in an ex vivo functional assay of human umbilical vein contraction, which is considered a gold standard for bradykinin activity measurements. […] Firazyr®). Following a 30 minute incubation, BK-induced vein contractions were initiated in a cumulative manner (final concentration of 10 μM), followed by maximal calibration contraction induction by 10 μM serotonin. The tension increase for each dose response was calculated in relation to the (maximal) response towards serotonin, graphed as a dose-response curve and used to calculate an effective concentration at 50% (EC50) value (FIG. 6)

With `NC(N)=NCCC[C@@H](N)C(=O)N[C@@H](CCCN=C(N)N)C(=O)N1CCC[C@H]1C(=O)N1C[C@H](O)C[C@H]1C(=O)NCC(=O)N[C@@H](Cc1cccs1)C(=O)N[C@@H](CO)C(=O)N1Cc2ccccc2C[C@@H]1C(=O)N1[C@H](C(=O)N[C@@H](CCCN=C(N)N)C(=O)O)C[C@@H]2CCCC[C@@H]21` [Firazyr® (icatibant), icatibant, reference compound], the EC50 stood at 2.5 nM.

A word on the EC50: it is the midpoint of the concentration-response curve. High values mean a less potent agent, low ones a more potent agent.
